Among the data in patent US20090253651A1, “DRUG DELIVERY SYSTEM BASED ON REGIOSELECTIVELY AMIDATED HYALURONIC ACID” (EURAND PHARMACEUTICALS LTD., priority 2006, published 2009) are IC50 values, retold here.

Format in all cases: cell-based
The test system of assay [1] is H460-M2 (lung metastatic carcinoma). The assay is described as follows: Antiproliferative activity, MTT test, H460-M2. To be noted: H460-M2 cells, 5 days treatment, MTT on day 6; read-out: IC50, concentration necessary to reduce the cell growth to 50% of the growth of the control. How it is done: (§1) Antiproliferative activity of the DDS was determined on three lines of carcinoma (HT29: colon rectal carcinoma, H460: lung carcinoma, H460M2: lung metastatic carcinoma which are CPT sensitive. Cells were incubated in 96-well plates for 5 days in complete RPMI1640 Medium (Sigma Chemical Co.) supplemented with 10% FBS (Hyclone Europe), 2 mM L-glutamine (Hyclone Europe), and 100 U/ml penicillin G and 100 ug/ml streptomycin (Sigma Chemical Co.) at […], and in controlled atmosphere (5% CO2), with irinotecan and DDSs of examples 38, 39, 41; the DDS were tested at doses equimolar with those of the reference, in the range 3-30 nM and 0.1-30 μM.
(§2) Cytotoxicity was determined on day 6 (after 5 days treatments) by the MTT test, by measuring cell viability as the cell metabolic capacity to transform the tetrazolium salt of MTT in the blue formazan, by mitochondrial dehydrogenases; the blue colour is read at 570 nm with a spectrophotometer. The following DDSs were tested.
On the technique in general: Formazan colour is commonly taken as a measure of viable cells.

The next assay deals with H460 (lung carcinoma). The assay is described as follows: Antiproliferative activity, MTT test, H460. To be noted: Homo sapiens, NCI-H460; H460 cells, 5 days treatment, MTT on day 6; read-out: IC50, concentration necessary to reduce the cell growth to 50% of the growth of the control. How it is done:
as §1, §2

For assay [2], the system named is HT29 (colon rectal carcinoma). Description: Antiproliferative activity, MTT test, HT29. As to conditions: Homo sapiens, HT-29; HT29 cells, 5 days treatment, MTT on day 6; read-out: IC50, concentration necessary to reduce the cell growth to 50% of the growth of the control. How it is done: as §1, §2

Regarding `CCc1c2c(nc3ccc(OC(=O)N4CCC(N5CCCCC5)CC4)cc13)-c1cc3c(c(=O)n1C2)COC(=O)[C@]3(O)CC` [Irinotecan, irinotecan], the IC50 in assay [1] amounted to 460 nM; with H460 (lung carcinoma), 440 nM; in assay [2] it was 250 nM.
